# Source: patent publication US20100197650A1, “COMPOSITIONS AND METHODS OF TREATMENT COMPRISING CEFTAROLINE” (FOREST LABORATORIES HOLDINGS LTD., priority 2008, published 2010)
# Where two headings read alike, the source gives them in different places.
# Columns and labels:
# [1] = tested on: clinical Enterobacteriacae and P. aeruginosa isolates; assay: Susceptibility testing (Example 2), summary over species; assay type: cell-based; settings: selected clinical isolates, except for 4 E. cloacae
# P. aeruginosa = assay: Susceptibility testing MIC/MBC, broth microdilution (Example 2); assay type: cell-based, Pseudomonas aeruginosa; settings: for MBC / MIC: Pseudomonas aeruginosa; for MBC: read-out: MBC; for MIC: read-out: MIC
# [2] = tested on: ESBL-producing Klebsiella pneumoniae; assay: as above; assay type: cell-based; settings: for MBC / MIC: Klebsiella pneumoniae; for MBC: read-out: MBC; for MIC: read-out: MIC
# ESBL-producing E. coli = assay: as above; assay type: cell-based, Escherichia coli; settings: for MBC / MIC: Escherichia coli
# [3] = tested on: AmpC-derepressed Enterobacter cloacae; assay: microbe, parasite or virus in culture; assay type: cell-based; settings: for MBC / MIC: Enterobacter cloacae
# Staphylococcus aureus = assay: MIC, broth microdilution (Example 1); assay type: cell-based
# Outline: (§1)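 Following the CLSI M7-A7 microdilution standard, each agent alone was tested across seven 2-fold steps. The drugs were in DMSO, and the medium was HTM, MH II broth, or MH II broth with 2% lysed horse blood depending on species. MIC was read visually after ~20 h at 35 °C.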
# Haemophilus influenzae = assay: MIC, broth microdilution (Example 1); assay type: cell-based
# Outline: (§2)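 CLSI broth microdilution with seven 2-fold dilutions per agent made in DMSO, the drug making up 5% of final well volume. H. influenzae was tested in Haemophilus Test Medium, S. pneumoniae in Mueller Hinton II broth with 2% lysed horse blood, and the others in Mueller Hinton II broth. Incubation was 35 °C for about 20 h, with visual reading.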
# Streptococcus pyogenes = assay: MIC, broth microdilution (Example 1); assay type: cell-based; settings: Streptococcus pyogenes, read-out: MIC
# Outline: as §1
# Klebsiella pneumoniae = assay: MIC, broth microdilution (Example 1); assay type: cell-based
# Outline: as §2
# Acinetobacter baumannii = assay: MIC, broth microdilution (Example 1); assay type: cell-based
# Outline: as §1
# Enterococcus faecalis = assay: MIC, broth microdilution (Example 1); assay type: cell-based
# Outline: as §1
# Escherichia coli = assay: MIC, broth microdilution (Example 1); assay type: cell-based; settings: Escherichia coli, read-out: MIC
# Outline: as §1
# Pseudomonas aeruginosa = assay: MIC, broth microdilution (Example 1); assay type: cell-based
# Outline: as §2
# Streptococcus pneumoniae = assay: MIC, broth microdilution (Example 1); assay type: cell-based; settings: Streptococcus pneumoniae, read-out: MIC
# Outline: as §2
# [4] = P. aeruginosa (20) clinical isolates
# [5] = K. pneumonia (10) clinical isolates
# [6] = E. cloacae (10) clinical isolates
compound,measurement,setting,value
CCO/N=C(\C(=O)N[C@@H]1C(=O)N2C(C(=O)[O-])=C(Sc3nc(-c4cc[n+](C)cc4)cs3)CS[C@H]12)c1nsc(N)n1 [Ceftaroline],MIC range,[1],2 to 1024 µg/mL
same,MBC range,P. aeruginosa; [4],16 to 256 µg/mL
same,MIC range,P. aeruginosa; [4],8 to 256 µg/mL
same,MBC,P. aeruginosa; P. aeruginosa isolate no. 796,32 µg/mL
same,MIC,P. aeruginosa; P. aeruginosa isolate no. 796,16 µg/mL
same,MBC,P. aeruginosa; P. aeruginosa isolate no. 956,256 µg/mL
same,MIC,P. aeruginosa; P. aeruginosa isolate no. 956,128 µg/mL
same,MBC,P. aeruginosa; P. aeruginosa isolate no. 1019,64 µg/mL
same,MIC,P. aeruginosa; P. aeruginosa isolate no. 1019,32 µg/mL
same,MBC,P. aeruginosa; P. aeruginosa isolate no. 1037,16 µg/mL
same,MIC,P. aeruginosa; P. aeruginosa isolate no. 1037,8 µg/mL
same,MBC range,[2]; [5],32 to 1024 µg/mL
same,MIC range,[2]; [5],8 to 1024 µg/mL
same,MBC,[2]; K. pneumonia isolate no. 5427,16 µg/mL
same,MIC,[2]; K. pneumonia isolate no. 5427,4 µg/mL
same,MBC,[2]; K. pneumonia isolate no. 5436,1020 µg/mL
same,MIC,[2]; K. pneumonia isolate no. 5436,1020 µg/mL
same,MBC range,ESBL-producing E. coli; E. coli (10) clinical isolates,4 to 1024 µg/mL
same,MIC range,ESBL-producing E. coli; E. coli (10) clinical isolates,2 to 512 µg/mL
same,MBC,"ESBL-producing E. coli; E. coli isolate no. 5401, read-out: MBC",8 µg/mL
same,MIC,"ESBL-producing E. coli; E. coli isolate no. 5401, read-out: MIC",4 µg/mL
same,MBC,ESBL-producing E. coli; E. coli isolate no. 5411,128 µg/mL
same,MIC,ESBL-producing E. coli; E. coli isolate no. 5411,64 µg/mL
same,MBC range,[3]; [6],0.125 to 1024 µg/mL
same,MIC range,[3]; [6],0.125 to 512 µg/mL
same,MBC,[3]; E. cloacae isolate no. 4073,512 µg/mL
same,MIC,[3]; E. cloacae isolate no. 4073,256 µg/mL
same,MBC,[3]; E. cloacae isolate no. 5420,128 µg/mL
same,MIC,[3]; E. cloacae isolate no. 5420,64 µg/mL
same,MIC,Staphylococcus aureus; S. aureus 0765 (MRSA),2 µg/mL
same,MIC,"Staphylococcus aureus; Staphylococcus aureus, MRSA, S. aureus 0765 (MRSA), read-out: MIC",1 µg/mL
same,MIC,"Staphylococcus aureus; Staphylococcus aureus, MRSA, S. aureus 2053 (MRSA), read-out: MIC",2 µg/mL
same,MIC,"Staphylococcus aureus; Staphylococcus aureus, MRSA, S. aureus 2202 (CA-MRSA), read-out: MIC",1 µg/mL
same,MIC,"Staphylococcus aureus; Staphylococcus aureus, MRSA, S. aureus 2296 (CA-MRSA), read-out: MIC",1 µg/mL
same,MIC,"Staphylococcus aureus; Staphylococcus aureus, MSSA, S. aureus 0753 (MSSA), read-out: MIC",0.5 µg/mL
same,MIC,"Staphylococcus aureus; Staphylococcus aureus, MSSA, S. aureus 2063 (MSSA), read-out: MIC",0.5 µg/mL
same,MIC,Haemophilus influenzae; H. influenzae 1224,0.12 µg/mL
same,MIC,Haemophilus influenzae; H. influenzae 2797 (BLNAR),0.12 µg/mL
same,MIC,"Haemophilus influenzae; Haemophilus influenzae, H. influenzae 1224, read-out: MIC",0.06 µg/mL
same,MIC,"Haemophilus influenzae; Haemophilus influenzae, H. influenzae 2797 (BLNAR), read-out: MIC",0.06 µg/mL
same,MIC,"Haemophilus influenzae; Haemophilus influenzae, H. influenzae 2798 (BLNAR), read-out: MIC",0.03 µg/mL
same,MIC,"Haemophilus influenzae; Haemophilus influenzae, H. influenzae 2799 (BLNAR), read-out: MIC",0.03 µg/mL
same,MIC,Streptococcus pyogenes; S. pyogenes 0717,0.008 µg/mL
same,MIC,Streptococcus pyogenes; S. pyogenes 0722,0.008 µg/mL
same,MIC,Klebsiella pneumoniae; K. pneumoniae 1461,0.5 µg/mL
same,MIC,"Klebsiella pneumoniae; Klebsiella pneumoniae, K. pneumoniae 1340, read-out: MIC",0.12 µg/mL
same,MIC,"Klebsiella pneumoniae; Klebsiella pneumoniae, K. pneumoniae 1461, read-out: MIC",0.25 µg/mL
same,MIC,"Klebsiella pneumoniae; Klebsiella pneumoniae, K. pneumoniae 1468 (ESBL), read-out: MIC",32 µg/mL
same,MIC,Acinetobacter baumannii; A. baumannii 2602,2 µg/mL
same,MIC,"Acinetobacter baumannii; Acinetobacter baumannii, A. baumannii 2601, read-out: MIC",2 µg/mL
same,MIC,Enterococcus faecalis; E. faecalis 0796 (VSE),4 µg/mL
same,MIC,"Enterococcus faecalis; Enterococcus faecalis, E. faecalis 0795 (VSE), read-out: MIC",8 µg/mL
same,MIC,"Enterococcus faecalis; Enterococcus faecalis, E. faecalis 0796 (VSE), read-out: MIC",2 µg/mL
same,MIC,"Enterococcus faecalis; Enterococcus faecalis, VRE, E. faecalis 0847 (VRE), read-out: MIC",2 µg/mL
same,MIC,"Enterococcus faecalis; Enterococcus faecalis, VRE, E. faecalis 0849 (VRE), read-out: MIC",4 µg/mL
same,MIC,Escherichia coli; E. coli 1587,0.12 µg/mL
same,MIC,Escherichia coli; E. coli 2273 (ESBL),2 µg/mL
same,MIC,Pseudomonas aeruginosa; P. aeruginosa 2555,32 µg/mL
same,MIC,Pseudomonas aeruginosa; P. aeruginosa 2559,16 µg/mL
same,MIC,"Streptococcus pneumoniae; PRSP, S. pneumoniae 0876 (PRSP)",0.12 µg/mL
same,MIC,"Streptococcus pneumoniae; PRSP, S. pneumoniae 0877 (PRSP)",0.12 µg/mL
same,MIC,"Streptococcus pneumoniae; PRSP, S. pneumoniae 0880 (PRSP)",0.12 µg/mL
same,MIC,"Streptococcus pneumoniae; PRSP, S. pneumoniae 0884 (PRSP)",0.12 µg/mL
same,MIC,Streptococcus pneumoniae; S. pneumoniae 0869 (PSSP),0.008 µg/mL
